Data taken from EPA's ToxRefDB 2.

Key:
[1] = tested on: rat; conditions: Fertility (Segment I), Oral, Gavage/Intubation, dose end: 1 generation
[2] = tested on: rat; conditions: Prenatal developmental toxicity study, Oral, Gavage/Intubation, dose end: 18 GD
[3] = tested on: rat; conditions: Fertility (Segment I), Oral, Gavage/Intubation, dose end: 1 generation; remark: listed apart in the source
[4] = tested on: rat; conditions: Multigenerational reproductive toxicity study, sprague dawley, Oral, Feed, dose end: 2 generation
[5] = tested on: rat; conditions: Combined chronic toxicity/carcinogenicity, sprague dawley, Oral, Feed, dose end: 24 month, group: systemic
[6] = tested on: rat; conditions: Prenatal developmental toxicity study, sprague dawley, Oral, Gavage/Intubation, dose end: 15 GD
[7] = tested on: rat; conditions: Subchronic oral toxicity in rodents, sprague dawley, Feed, dose end: 13 week, group: systemic
[8] = tested on: mouse; conditions: Carcinogenicity, cd1, Oral, Feed, dose end: 78 week, group: systemic
[9] = group: maternal, reproductive / reproductive performance / estrous cycle / abnormal + reproductive / reproductive performance / estrous cycle / corpora lutea…
[10] = group: parental, systemic / in life observation / clinical signs / alopecia
[11] = group: parental, systemic / in life observation / clinical signs / alopecia + systemic / in life observation / body weight / body weight + systemic / in life…
[12] = group: developmental, developmental / developmental malformation / eye / microphthalmia + developmental / developmental malformation / general / situs inversus + …
[13] = group: maternal, reproductive / reproductive performance / postimplantation loss / postimplantation loss + reproductive / reproductive performance / …
[14] = group: maternal, reproductive / reproductive performance / fertility / fertility + reproductive / reproductive performance / pregnancy index / pregnancy …
[15] = group: parental, systemic / in life observation / body weight / body weight + systemic / in life observation / clinical signs / body surface staining + …
[16] = group: parental, systemic / in life observation / clinical signs / convulsions
[17] = group: offspring, systemic / in life observation / body weight / offspring (pup) weight
[18] = group: parental, systemic / in life observation / body weight / body weight + systemic / in life observation / body weight / body weight gain
[19] = group: developmental, developmental / developmental malformation / bone / incomplete ossification + developmental / developmental malformation / bone / split …
[20] = group: maternal, systemic / in life observation / body weight / body weight gain + systemic / in life observation / clinical signs / salivation + …
[21] = systemic / in life observation / food consumption / food consumption
[22] = systemic / in life observation / food consumption / food consumption + systemic / clinical chemistry / cholesterol / cholesterol + systemic…

**Q.** Which results are given for `O=C(N[C@H]1CN2CCC1CC2)c1cc2ccoc2cn1`?
**A.** LEL [1, 9]: 150 mg/kg/day; LOAEL [1, 9]: > 150 mg/kg/day; NEL [1, 9]: 50 mg/kg/day; NOAEL [1, 9]: ≥ 150 mg/kg/day; LEL [1, 10]: 5 mg/kg/day; NEL [1, 10]: < 5 mg/kg/day; LOAEL [1, 11]: > 150 mg/kg/day; NOAEL [1, 11]: ≥ 150 mg/kg/day; LOAEL [2, 12]: > 150 mg/kg/day; NOAEL [2, 12]: ≥ 150 mg/kg/day; LEL ([2]; group: developmental, developmental / developmental malformation / great vessels / [other]): 20 mg/kg/day; LOAEL [2, 13]: > 150 mg/kg/day; NEL [2, 13]: 5 mg/kg/day; NOAEL [2, 13]: ≥ 150 mg/kg/day; LEL ([2]; group: maternal, systemic / in life observation / clinical signs / alopecia): 20 mg/kg/day; LEL [3, 14]: 150 mg/kg/day; LOAEL [3, 14]: > 175 mg/kg/day; NEL [3, 14]: 75 mg/kg/day; NOAEL [3, 14]: ≥ 175 mg/kg/day; LOAEL [3, 15]: > 175 mg/kg/day; NOAEL [3, 15]: ≥ 175 mg/kg/day; LEL [3, 16]: 7 mg/kg/day; NEL [3, 16]: < 7 mg/kg/day

**Q.** How did the LEL [4, 17] turn out when `CC1COc2ccccc2N1C(=O)C(Cl)Cl` (stereo unspecified) [Benoxacor] was run?
**A.** Its LEL is 45.5 mg/kg/day.

**Q.** What about the LOAEL [4, 17] of the same molecule?
**A.** The LOAEL was 45.5 mg/kg/day.

**Q.** What about the NEL [4, 17] of the same molecule?
**A.** The NEL was 4.2 mg/kg/day.

**Q.** What about the NOAEL [4, 17] of the same molecule?
**A.** Its NOAEL is 4.2 mg/kg/day.

**Q.** And the LEL [4, 18]?
**A.** Its LEL is 34.8 mg/kg/day.

**Q.** What about the LOAEL [4, 18] of the same molecule?
**A.** The LOAEL was 34.8 mg/kg/day.

**Q.** What about the NEL [4, 18] of the same molecule?
**A.** The NEL was 3.55 mg/kg/day.

**Q.** What about the NOAEL [4, 18] of the same molecule?
**A.** Its NOAEL is 3.55 mg/kg/day.

**Q.** What does the source list for `CCSC(C)CC1CC(=O)C(C(CC)=NOC/C=C/Cl)=C(O)C1` (stereo unspecified) [Clethodim]?
**A.** NOAEL ([5]; systemic / in life observation / body weight / body weight gain + systemic / organ weight / liver / absolute + systemic / pathology …): 19 mg/kg/day; LOAEL ([5]; systemic / in life observation / body weight / body weight gain + systemic / organ weight / liver / relative to body weight + systemic / …): 100 mg/kg/day; LEL ([5]; systemic / pathology microscopic / bone marrow / hypocellularity): 0.64 mg/kg/day; NEL ([5]; systemic / pathology microscopic / bone marrow / hypocellularity + systemic / in life observation / body weight / body weight + systemic / …): 0.18 mg/kg/day; LEL ([6]; group: developmental, developmental / developmental malformation / bone / absent + developmental / developmental malformation / mouth / jaw / maxillary …): 100 mg/kg/day; LOAEL [6, 19]: 350 mg/kg/day; NEL [6, 19]: 10 mg/kg/day; NOAEL [6, 19]: 100 mg/kg/day; LOAEL ([6]; group: maternal, systemic / in life observation / body weight / body weight gain + systemic / in life observation / clinical signs / salivation): 350 mg/kg/day; LEL ([6]; group: maternal, systemic / in life observation / body weight / body weight gain + systemic / in life observation / clinical signs / salivation + systemic / …): 350 mg/kg/day; NEL [6, 20]: 100 mg/kg/day; NOAEL [6, 20]: 100 mg/kg/day; LEL [7, 21]: 25 mg/kg/day; LOAEL [7, 21]: 25 mg/kg/day; NEL [7, 22]: 2.3 mg/kg/day; NOAEL [7, 22]: 2.3 mg/kg/day; LEL ([8]; systemic / pathology microscopic / liver / adenoma + systemic / pathology microscopic / lung / adenoma + systemic / hematology / erythrocyte…): 30 mg/kg/day; NEL ([8]; systemic / pathology microscopic / liver / adenoma + systemic / pathology microscopic / lung / adenoma + systemic / pathology microscopic / …): 3 mg/kg/day; LOAEL ([8]; systemic / pathology microscopic / liver / hypertrophy + systemic / organ weight / liver / relative to body weight + systemic / organ weight…): 150 mg/kg/day; NOAEL ([8]; systemic / pathology microscopic / liver / hypertrophy + systemic / pathology microscopic / liver / adenoma + systemic / hematology / …): 30 mg/kg/day
